Data taken from patent US20140121236A1, “Compositions and Methods for Treating Myotonic Dystrophy Type 1” (UNIVERSITY OF SOUTHERN CALIFORNIA, priority 2012, published 2014).

How the values were obtained:
normal and DM1 myoblasts = assay: Off-target splicing and RNA steady-state levels (semi-quantitative RT-PCR) in myoblasts; type: cell-based, human
Text: Semi-quantitative RT-PCR was done as previously described (7,17, 23). Abbreviations: U: Untreated; V: vehicle treated; 16: treated with RCN-001.
(§1) Results for wild-type and HSA^LR mice are not shown.

[1] = system: Clcn1, lbd3 and Serca-1 RNA splicing in HSALR mice; assay: RT-PCR splicing analysis of skeletal muscle RNA of treated HSALR mice; type: in vivo; details: 40 mg/kg i.p. each day for 7 days
Text: A. Total RNA was isolated from age and gender matched wild-type mice, HSA^LR mice and HSA^LR mice treated with either saline or 40 mgs/kg of RCN-001 injected i.p. once a day for 7 days. Subsequent to treatment RNA was isolated from skeletal muscles and subjected to RT-PCR analysis using the indicated primers sets for Clcn1, Lbd3 and Serca-1 RNAs. GAPDH RNA was amplified in parallel as an internal control. The results of two experiments are shown. B. Bar graph representation of rescue achieved is shown. C. The relative levels of exon inclusion was measured by densitometry and tabulated as mean % exon inclusion +/− standard deviation.
(§2) Furthermore, CUG foci, abnormal RNA splicing, myotonia and reduced Clcn1 protein levels are reversed in HSA^LR mice treated with RCN-001: Age and gender matched HSA^LR mice were treated with either vehicle or 40/mgs/kg of RCN-001 injected i.p. each day for 7 days. After treatment CUG foci were examined and RNA isolated from skeletal muscle was subjected to RT-PCR analysis to examine the efficacy of RCN-001 in correcting the splice defects of Clcn1, lbd3 and Serca-1 RNAs, which are abnormally spliced in DM1 (20).
Treatment in HSALR mice. […]
The relative band intensities were quantified by densitometry analyses and the percent of exon inclusion was calculated as [exon inclusion/(exon inclusion+exon exclusion)]×100.

Clcn1 = assay: Anti-Clcn1 staining of gastrocnemius muscle sections of HSALR mice; type: in vivo; details: 14 days treatment
Text: (§3) For all animals the recording electrode was inserted into the test muscle 20 times. The number of myotonic runs ≧1 second in the gastrocnemius muscle of individual HSA^LR mice treated with either the saline control or RCN-001 are shown.
(§4) Importantly, RCN-001 reduces the number of myotonic runs of ≧1 second (p<0.05) (FIG. 5), total time of myotonic runs ≧1 sec (4.04 s±2.9 vehicle; 0.99 s±1.4 RCN-001; p<0.05) and length of the longest run (1.96 s±0.97 vehicle; 0.73 s±0.71 RCN-001; p<0.05) in the gastrocnemius muscle of HSA^LR mice. […] Methods are detailed in the legend of FIG. 5.
(§5) CUG-RNA foci were detected by performing FISH on untreated DM1 myoblasts and DM1 myoblasts following treatment. For FISH analysis, DM1 myoblasts were plated on a 24-well clear bottom polystyrene plate with circular glass coverslips followed by treatment. Prior to FISH analysis, cells were fixed using 4% paraformaldehyde in 1×PBS for 20 min at room temperature. FISH analysis was performed using a Cy3 conjugated (CAG)10 oligonucleotide probe (Integrated DNA Technologies, Inc.) as described by Taneja et al, 1995 and Dansithong et al, 2005. CUG-RNA foci were observed as a red signal using fluorescence microscopy. […] Endogenous SHARP was detected using SHARP polyclonal antibodies from Bethyl at a dilution of 1:1000. […] Chloride channel 1 (Clcn1 a.k.a. CIC-1) was detected using CIC-1 polyclonal antibodies from Santa Cruz. […]

wild-type and HSALR mice = assay: Off-target splicing and RNA steady-state levels in mice; type: in vivo
Text: as §1

[2] = system: CUG-RNA foci in DM1 myoblasts; assay: FISH analysis of nuclear CUG-RNA foci in DM1 myoblasts; type: cell-based, human; details: 4 days
Experimental: (§6) DM1 myoblasts were then treated with 10 μM of either RCN-001 or the vehicle (DMSO) for 4 days and then examined by FISH using a Cy3 (CAG)10 probe.
Normal myoblasts were purchased from Lonza, Inc. DM1 myoblasts were a gift from Dr. Charles Thornton. Normal and DM1 myoblasts were maintained in SkGM Medium (Lonza, Inc.) containing 10% Fetal Bovine Serum and 1% Penicillin-Streptomycin, 5% CO2 at 37° C. Human Embryonic Kidney 293 Cells (293HEK) were maintained in Dulbecco's Modification of Eagle's Medium (DMEM) from Cellgro supplemented with 10% Fetal Bovine Serum and 1% Penicillin-Streptomycin, 5% CO2 at 37° C.
(§7) CUG-RNA foci were detected by performing FISH on untreated DM1 myoblasts and DM1 myoblasts following treatment. For FISH analysis, DM1 myoblasts were plated on a 24-well clear bottom polystyrene plate with circular glass coverslips followed by treatment. Prior to FISH analysis, cells were fixed using 4% paraformaldehyde in 1×PBS for 20 min at room temperature. FISH analysis was performed using a Cy3 conjugated (CAG)10 oligonucleotide probe (Integrated DNA Technologies, Inc.) as described by Taneja et al, 1995 and Dansithong et al, 2005. CUG-RNA foci were observed as a red signal using fluorescence microscopy. Immunofluorescence was performed as described by Dansithong et al, 2008. Endogenous SHARP was detected using SHARP polyclonal antibodies from Bethyl at a dilution of 1:1000. The secondary antibodies conjugated with FITC (Invitrogen) were used at a 1:2000 dilution. Chloride channel 1 (Clcn1 a.k.a. CIC-1) was detected using CIC-1 polyclonal antibodies from Santa Cruz. The secondary antibodies conjugated with Alexa Flour 488 (Invitrogen) were used at a 1:2000 dilution. FISH analysis in mouse muscle section was carried out as described in Mancodi et al, 2000 (9).

DM1 myoblasts [3] = assay: Toxicity by shape and size of the nuclei of DM1 myoblasts; type: cell-based, human; details: Table 1, 10 μM, 4 days
SHARP = SHARP immunofluorescence in DM1 myoblasts; type: cell-based, human; details: RCN-001 treatment for 4 days (not shown)
Experimental: as §6, §7

CUG foci in HSALR mice = assay: CUG foci (FISH) in muscle of treated HSALR mice; type: in vivo; details: 40 mg/kg i.p. each day for 7 days
Experimental: Red: CUG foci, detected with a (CAG)10Cy3 probe Blue: DAPI stain of nuclei.
as §2
as §5, with “FISH analysis was performed using a Cy3 conjugated (CAG)10 oligonucleotide probe (Integrated DNA Technologies, Inc.) as described by Taneja et al, 1995 and Dansithong et al, 2005.” left out

[4] = system: CUG-RNA foci in DM1 myoblasts; assay: FISH analysis of nuclear CUG-RNA foci in DM1 myoblasts; type: cell-based, human; details: 2 μM, 4 days (not shown)
DM1 myoblasts [5] = assay: Viability of DM1 myoblasts by counting surviving cells; type: cell-based, human; details: Table 1, 10 μM, 4 days, surviving cells vs vehicle control
HSALR mice = assay: Myotonic runs recorded in muscle of treated HSALR mice; type: in vivo; details: gastrocnemius muscle, 40 mg/kg IP once a day for 14 days, p<0.05 vs vehicle
Text: as §3, §4
Treatment in HSALR mice. The HSALR transgenic mice expressing (CTG)250 in the 3′UTR of the human skeletal actin mRNA as described in Mankodi et al, 2000 were utilized for this study (a generous gift from Dr. Charles Thornton). Treatment in mice was done by intraperitoneal injection using 40 mg/kg once a day for 7 or 14 days of RCN-001 or vehicle alone. Total RNA was isolated from skeletal muscle of treated HSALR mice using Trizole (Invitrogen, USA) following the manufacture's protocol. cDNA synthesis and PCR was performed as described in Dansithong et al, 2008. PCR amplification was carried out with the following primers—

CCCCCCc1cc2cc(-c3nnc(-c4cccc(OC)c4)o3)c(=O)oc2cc1O [RCN-001]
off target effects on steady-state levels of endogenous (CUG)6-25 repeat encoding RNAs (normal and DM1 myoblasts; normal and DM1 myoblasts (FIG. 6C)): does not show significant off target effects
splice patterns of RNAs that are abnormally spliced in DM1 (normal and DM1 myoblasts; normal myoblasts (FIG. 6B)): does not alter splice patterns
splice patterns of RNAs that are normally spliced in DM1 (normal and DM1 myoblasts; normal or DM1 myoblasts (FIG. 6A)): does not alter splice patterns
rescue of splice defects of Clcn1, lbd3 and Serca-1 RNAs [1]: achieved rescue of splice defects that was comparable to results obtained with AON
chloride channel (Clcn1) levels (Clcn1): re-establish normal chloride channel levels
off target effects on steady-state levels of endogenous (CUG)6-25 repeat encoding RNAs (wild-type and HSALR mice; wild-type and HSALR mice (not shown)): does not show significant off target effects
splice patterns of RNAs that are abnormally spliced in DM1 (wild-type and HSALR mice; wild-type mice (not shown)): does not alter splice patterns
splice patterns of RNAs that are normally spliced in DM1 (wild-type and HSALR mice; wild-type or HSALR mice (not shown)): does not alter splice patterns
decrease in cells containing 3 or more foci ([2]; 10 μM, vs vehicle (DMSO)): ~5 fold
increase in cells containing no foci ([2]; 10 μM, vs vehicle (DMSO)): ~10 fold
# of Foci (percentage) 0-1: Percentage of cells with no or 1 nuclear foci ([2]; Table 1, 10 μM, FISH): 48 percentage
# of Foci (percentage) >2: Percentage of cells with 2 or greater nuclear foci ([2]; Table 1, 10 μM, FISH): 52 percentage
Toxicity: Toxic (DM1 myoblasts [3]): ++++ (60% alterations in nuclei shape and size)
SHARP mislocalization / nuclear SHARP levels in DM1 myoblast (SHARP): significantly reversed SHARP mislocalization and re-established nuclear SHARP levels
load of the CUG foci (CUG foci in HSALR mice): reduced
decrease in cells containing 3 or more foci [4]: 2 fold
increase in cells containing no foci [4]: 5 fold
Toxicity: Viable (DM1 myoblasts [5]): ++ (30-40% cell survival)
number of myotonic runs of ≧1 second (HSALR mice): reduces
